# Experimental data: ChEMBL document CHEMBL1146844, “Probing a water channel near the A-ring of receptor-bound 1 alpha,25-dihydroxyvitamin D3 with selected 2 alpha-substituted analogues” (J Med Chem, 2006)
# Calls of active or inactive are those of the source. The rule behind the calls is not given here.
# Test system: HL-60
# Assay: Induction of HL60 cell differentiation in correlation with affinity to human VDR
# Format: functional, cell-based
row,SMILES,Activity
1,C=C1/C(=C\C=C2/CCC[C@]3(C)[C@@H]([C@H](C)CCCC(C)(C)O)CC[C@@H]23)C[C@H](O)[C@@H](OCCC)[C@H]1O,inactive
2,C=C1/C(=C\C=C2/CCC[C@]3(C)[C@@H]([C@H](C)CCCC(C)(C)O)CC[C@@H]23)C[C@@H](O)[C@H](C)[C@@H]1O,Active
3,C=C1/C(=C\C=C2/CCC[C@]3(C)[C@@H]([C@H](C)CCCC(C)(C)O)CC[C@@H]23)C[C@@H](O)[C@H](CCCO)[C@@H]1O,Active
4,C=C1/C(=C\C=C2/CCC[C@]3(C)[C@@H]([C@H](C)CCCC(C)(C)O)CC[C@@H]23)C[C@@H](O)[C@H](CCC)[C@@H]1O,Active
5,C=C1/C(=C\C=C2/CCC[C@]3(C)[C@@H]([C@H](C)CCCC(C)(C)O)CC[C@@H]23)C[C@@H](O)[C@H](OCCCO)[C@@H]1O,inactive
